# Reference: patent US20250144067A1, “PERSONALIZED STARVATION THERAPY FOR CANCER” (Faeth Therapeutics, Inc., priority 2021, published 2025)
# Structures can show the parent of a compound that is named as a salt.
# Experiments:
# [1] = test system: NCI-H292 lung cancer cells; test: FDA drug screening, complete media vs cholesterol-free media with simvastatin (TABLE 2); type: cell-based, human; details: for Cholesterol-free media + simvastatin (0.04 μM) / Complete Media: NCI-H292 cells
# [2] = test system: NCI-H292 lung cancer cells; test: FDA drug screening, complete media vs cholesterol-free media without statin (TABLE 1); type: cell-based, human
# [3] = cholesterol-free media with simvastatin 0.04 μM, FDA drug library screen (TABLE 2)
# [4] = complete media, FDA drug library screen (TABLE 2)
# [5] = Complete minus Cholesterol-free, […]
# [6] = NCI-H292 cells, cholesterol-free media without statin, FDA drug library screen
# [7] = NCI-H292 cells, complete media, FDA drug library screen
# [8] = FDA drug library screen, cholesterol-free media with simvastatin 0.04 μM
# [9] = FDA drug library screen, complete media
# [10] = NCI-H292 cells, cholesterol-free media without statin
# [11] = complete media minus cholesterol-free media + simvastatin, >0 enhanced anti-cancer activity, about 0 neutral, <0 antagonist
# [12] = complete vs cholesterol-free media, >0 enhanced anti-cancer activity, about 0 neutral, <0 antagonist
# [13] = FDA library drug in cholesterol-free media with simvastatin 0.04 μM
# [14] = FDA library drug in complete media
# [15] = complete media vs cholesterol-free media + simvastatin (0.04 μM), >0 enhanced anti-cancer activity, about 0 neutral, <0 antagonist
# [16] = Complete minus Cholesterol-free, greater than 0 enhanced anti-cancer activity, about 0 neutral, below 0 antagonists
# [17] = NCI-H292 cells in cholesterol-free media without statin
# [18] = NCI-H292 cells in complete media
# [19] = complete media minus cholesterol-free media + simvastatin (0.04 μM), >0 enhanced anti-cancer activity, about 0 neutral, <0 antagonist
# [20] = Complete minus Cholesterol-free, >0 enhanced anti-cancer activity, about 0 neutral, <0 antagonist
# [21] = complete vs cholesterol-free media, greater than 0 enhanced anti-cancer activity, about 0 neutral, below 0 antagonists
SMILES,"Cholesterol-free [2, 6]","Complete [2, 7]","Cholesterol-free media + simvastatin (0.04 μM) [1, 8]","Complete Media [1, 9]","Cholesterol-free [2, 10]","Complete ([2]; NCI-H292 cells, complete media)","Difference [2, 12]","Difference [1, 15]",also measured
CC(O)C(=O)O.CCOc1ccc2nc3cc(N)ccc3c(N)c2c1.O [Ethacridine (lactate monohydrate)],0.2006,0.1519,,,,,,,"Cholesterol-free media + simvastatin (0.04 μM) [1, 3]: 0.1737; Complete Media [1, 4]: 0.1706; Difference ([1]; complete media minus cholesterol-free media + simvastatin (0.04 μM), […]): 0.00; Difference [2, 5]: −0.05"
CC(O)C(=O)O.CCOc1ccc2nc3cc(N)ccc3c(N)c2c1 [Ethacridine (lactate)],,,0.2653,0.1668,0.3206,0.04483,,,"Difference ([1]; complete media vs cholesterol-free media + simvastatin (0.04 μM), […]): −0.10; Difference [2, 5]: −0.28"
C=C(CC)C(=O)c1ccc(OCC(=O)O)c(Cl)c1Cl [Ethacrynic acid],0.8126,0.956,,,,,0.14,,"Cholesterol-free media + simvastatin (0.04 μM) ([1]; cholesterol-free media with simvastatin 0.04 μM, cell growth value in FDA drug screen): 1.155; Complete Media ([1]; complete media, cell growth value in FDA drug screen): 1.268; Difference [1, 11]: 0.11"
CC[C@@H](CO)NCCN[C@@H](CC)CO [Ethambutol (dihydrochloride)],0.4829,1.206,,,,,0.72,−0.41,"Cholesterol-free media + simvastatin (0.04 μM) [1, 13]: 1.428; Complete Media [1, 14]: 1.016"
O=S(=O)(O)c1cc(O)ccc1O [Ethamsylate],,,1.397,1.245,,,,−0.15,"Difference [2, 16]: −0.53; Cholesterol-free [2, 17]: 1.652; Complete [2, 18]: 1.118"
CCc1cc(C(N)=S)ccn1 [Ethionamide],,,,,,,,,"Cholesterol-free media + simvastatin (0.04 μM) [1, 3]: 1.611; Complete Media [1, 4]: 1.611; Difference [1, 19]: 0.00; Difference [2, 16]: −0.66; Cholesterol-free [2, 17]: 1.516; Complete [2, 18]: 0.857"
CCC1(C)CC(=O)NC1=O (stereo not drawn) [Ethosuximide],,,1.133,0.9952,1.124,0.884,,−0.14,"Difference [2, 20]: −0.24"
CCOc1ccc2nc(S(N)(=O)=O)sc2c1 [Ethoxzolamide],,,1.137,1.016,1.33,0.9909,,−0.12,"Difference [2, 21]: −0.34"
CCOC(=O)c1ccc(O)cc1 [Ethylparaben],1.065,1.563,1.326,1.517,,,0.50,,"Difference [1, 11]: 0.19"
C#C[C@]1(OC(C)=O)CC[C@H]2[C@@H]3CCC4=C[C@@H](OC(C)=O)CC[C@@H]4[C@H]3CC[C@@]21C [Ethynodiol diacetate],,,,,,,,−0.33,"Cholesterol-free media + simvastatin (0.04 μM) [1, 13]: 1.26; Complete Media [1, 14]: 0.9323; Difference [2, 16]: −0.50; Cholesterol-free [2, 17]: 1.654; Complete [2, 18]: 1.155"
C#C[C@]1(O)CC[C@H]2[C@@H]3CCc4cc(O)ccc4[C@H]3CC[C@@]21C [Ethynyl Estradiol],0.8735,1.393,,,,,0.52,−0.20,Cholesterol-free media + simvastatin (0.04 μM) ([1]; drug in cholesterol-free media with simvastatin 0.04 μM): 1.254; Complete Media ([1]; drug in complete media): 1.055
CC(O)(P(=O)(O)O)P(=O)(O)O [Etidronic acid],,,,,1.196,0.8527,,,"Cholesterol-free media + simvastatin (0.04 μM) [1, 3]: 0.8968; Complete Media [1, 4]: 0.9014; Difference [1, 19]: 0.00; Difference [2, 21]: −0.34"
CCc1cccc2c3c([nH]c12)C(CC)(CC(=O)O)OCC3 (stereo not drawn) [Etodolac],,,0.9939,1.145,1.251,0.9193,,,"Difference [1, 11]: 0.15; Difference [2, 21]: −0.33"
O=C(OCCOCCO)c1ccccc1Nc1cccc(C(F)(F)F)c1 [Etofenamate],1.014,1.036,,,,,,−0.86,"Cholesterol-free media + simvastatin (0.04 μM) [1, 13]: 2.387; Complete Media [1, 14]: 1.527; Difference [2, 20]: 0.02"
Cn1c(=O)c2c(ncn2CCO)n(C)c1=O [Etofylline],1.261,1.355,0.885,1.042,,,0.09,,"Difference [1, 11]: 0.16"
